From patent publication US20050075375A1 (priority 2003, published 2005)

System: monocistronic NK5.1 HCV replicon in Huh7 cells
Assay: HCV replicon assay, monocistronic replicon cell line
Type: cell-based, hepatitis C virus
Conditions: Hepatitis C virus, Huh-7; monocistronic NK5.1 HCV replicon in Huh7 cells; median value; read-out: Mono EC50 Median
How it was run: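 Huh7 cells carrying the monocistronic NK5.1 replicon, seeded 24 h before dosing, were exposed to six-point half-log compound series (0.6% DMSO) for 3 days at 37 °C. Replicon RNA was quantified by TaqMan RT-PCR, normalised to GAPDH and compared with DMSO controls to derive EC50.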

SMILES	EC50 [µM]
O=[N+]([O-])c1cccc(-c2nc(-c3nccc4ccccc34)n[nH]2)c1 [Compound 379]	> 19
COc1ccc(OC)c(-c2nc(-c3nccc4ccccc34)n[nH]2)c1 [Compound 380]	> 19
Oc1ccc(O)c(-c2nc(-c3nccc4ccccc34)n[nH]2)c1 [Compound 381, 4-Hydroxy-2-(5-isoquinolin-1-yl-2H-[1,2,4]triazol-3-yl)-phenol]	8.5
COc1cccc(-c2nc(-c3nccc4ccccc34)n[nH]2)c1 [Compound 382]	> 19
COc1ccc(F)c(-c2nc(-c3nccc4ccccc34)n[nH]2)c1 [Compound 383]	> 19
Oc1ccc2ccccc2c1-c1nc(-c2nccc3ccccc23)n[nH]1 [Compound 385, 1-(5-isoquinolin-1-yl-2H-[1,2,4]triazol-3-yl)-naphthalen-2-ol]	> 19
Oc1ccc(O)c(-c2nc(-c3ccccn3)n[nH]2)c1 [Compound 386, 4-Hydroxy-2-(5-pyridin-2-yl-2H-[1,2,4]triazol-3-yl)-phenol]	> 19
COc1cccc(-c2nc(-c3ccccn3)n[nH]2)c1 [Compound 387, 2-[5-(3-Methoxy-phenyl)-1H-[1,2,4]triazol-3-yl]-pyridine]	> 19
COc1ccc(F)c(-c2nc(-c3ccccn3)n[nH]2)c1 [Compound 388, 2-[5-(2-Fluoro-5-methoxy-phenyl)-1H-[1,2,4]triazol-3-yl]-pyridine]	> 19
CC(C)c1ccc(-c2nc(-c3ccccn3)n[nH]2)cc1 [Compound 389, 2-[5-(4-Isopropyl-phenyl)-1H-[1,2,4]triazol-3-yl]-pyridine]	> 19
Cc1cccc(-c2n[nH]c(-c3cccc4ccccc34)n2)n1 [Compound 390, 2-Methyl-6-(5-naphthalen-1-yl-1H-[1,2,4]triazol-3-yl)-pyridine]	> 19
Cc1cccc(-c2n[nH]c(-c3cc(C(C)(C)C)ccc3O)n2)n1 [Compound 391, 4-tert-Butyl-2-[5-(6-methyl-pyridin-2-yl)-2H-[1,2,4]triazol-3-yl]-phenol]	> 19
Cc1cccc(-c2n[nH]c(-c3cc([N+](=O)[O-])ccc3O)n2)n1 [Compound 392, 4-Nitro-2-(5-(6-methyl-pyridin-2-yl)-2H-[1,2,4]triazol-3-yl)-phenol]	> 19
Cc1cccc(-c2n[nH]c(-c3cc(F)ccc3O)n2)n1 [Compound 393, 4-Fluoro-2-(5-(6-methyl-pyridin-2-yl)-2H-[1,2,4]triazol-3-yl)-phenol]	> 19
COc1ccc(O)c(-c2nc(-c3cccc(C)n3)n[nH]2)c1 [Compound 394, 4-Methoxy-2-(5-(6-methyl-pyridin-2-yl)-2H-[1,2,4]triazol-3-yl)-phenol]	> 19
Cc1cccc(-c2n[nH]c(-c3cc(Cl)ccc3O)n2)n1 [Compound 395, 4-Chloro-2-(5-(6-methyl-pyridin-2-yl)-2H-[1,2,4]triazol-3-yl)-phenol]	> 19
CCOc1cccc(-c2nc(-c3cccc(C)n3)n[nH]2)c1O [Compound 396, 6-Ethoxy-2-(5-(6-methyl-pyridin-2-yl)-2H-[1,2,4]triazol-3-yl)-phenol]	> 19
Cc1cccc(-c2n[nH]c(-c3ccc(OCc4ccccc4)cc3O)n2)n1 [Compound 397, 5-Benzyloxy-2-(5-(6-methyl-pyridin-2-yl)-2H-[1,2,4]triazol-3-yl)-phenol]	> 19
Cc1cccc(-c2n[nH]c(-c3ccc(-c4ccccc4)c(F)c3)n2)n1 [Compound 398, 2-[5-(2-Fluoro-biphenyl-4-yl)-1H-[1,2,4]triazol-3-yl]-6-methyl-pyridine]	> 19
Cc1cccc(-c2n[nH]c(-c3cc(Br)ccc3O)n2)n1 [Compound 399, 4-Bromo-2-(5-(6-methyl-pyridin-2-yl)-2H-[1,2,4]triazol-3-yl)-phenol]	> 19
Cc1ccc(O)c(-c2nc(-c3cccc(C)n3)n[nH]2)c1 [Compound 400, 4-Methyl-2-(5-(6-methyl-pyridin-2-yl)-2H-[1,2,4]triazol-3-yl)-phenol]	> 19
COc1ccc(-c2nc(-c3cccc(C)n3)n[nH]2)c(O)c1 [Compound 401, 5-Methoxy-2-(5-(6-methyl-pyridin-2-yl)-2H-[1,2,4]triazol-3-yl)-phenol]	> 19
Cc1cccc(-c2n[nH]c(-c3ccccc3O)n2)n1 [Compound 402, 2-(5-(6-methyl-pyridin-2-yl)-2H-[1,2,4]triazol-3-yl)-phenol]	> 19

SMILES	EC50 [µM]
COc1cccc(-c2nc(-c3cccc(C)n3)n[nH]2)c1O [Compound 403, 6-Methoxy-2-(5-(6-methyl-pyridin-2-yl)-2H-[1,2,4]triazol-3-yl)-phenol]	> 19
Cc1cccc(-c2n[nH]c(-c3cccc([N+](=O)[O-])c3)n2)n1 [Compound 404, 6-Methyl-2-[5-(3-nitro-phenyl)-1H-[1,2,4]triazol-3-yl]-pyridine]	> 19
COc1cccc(-c2nc(-c3cccc(C)n3)n[nH]2)c1 [Compound 405, 2-[5-(3-Methoxy-phenyl)-1H-[1,2,4]triazol-3-yl]-6-methyl-pyridine]	> 19
COc1ccc(F)c(-c2nc(-c3cccc(C)n3)n[nH]2)c1 [Compound 406, 2-[5-(2-Fluoro-5-methoxy-phenyl)-1H-[1,2,4]triazol-3-yl]-6-methyl-pyridine]	> 19
COc1ccc([N+](=O)[O-])cc1-c1nc(-c2cccc(C)n2)n[nH]1 [Compound 407, 2-[5-(2-Methoxy-5-nitro-phenyl)-1H-[1,2,4]triazol-3-yl]-6-methyl-pyridine]	> 19
Cc1cccc(-c2n[nH]c(-c3ccc(C(C)C)cc3)n2)n1 [Compound 408, 2-[5-(4-Isopropyl-phenyl)-1H-[1,2,4]triazol-3-yl]-6-methyl-pyridine]	> 19
Cc1cccc(-c2n[nH]c(-c3c(O)ccc4ccccc34)n2)n1 [Compound 409, 1-(5-(6-methyl-pyridin-2-yl)-2H-[1,2,4]triazol-3-yl)-naphthalen-2-ol]	> 19
FC(F)(F)c1ccncc1-c1n[nH]c(-c2cccc3ccccc23)n1 [Compound 410, 3-(5-Naphthalen-1-yl-1H-[1,2,4]triazol-3-yl)-4-trifluoromethyl-pyridine]	2.9
CC(C)(C)c1ccc(O)c(-c2nc(-c3cnccc3C(F)(F)F)n[nH]2)c1 [Compound 411, 4-tert-Butyl-2-[5-(4-trifluoromethyl-pyridin-3-yl)-2H-[1,2,4]triazol-3-yl]-phenol]	10
O=[N+]([O-])c1ccc(O)c(-c2nc(-c3cnccc3C(F)(F)F)n[nH]2)c1 [Compound 412, 4-Nitro-2-[5-(4-trifluoromethyl-pyridin-3-yl)-2H-[1,2,4]triazol-3-yl]-phenol]	> 19
Oc1ccc(F)cc1-c1nc(-c2cnccc2C(F)(F)F)n[nH]1 [Compound 413, 4-Fluoro-2-[5-(4-trifluoromethyl-pyridin-3-yl)-2H-[1,2,4]triazol-3-yl]-phenol]	> 19
COc1ccc(O)c(-c2nc(-c3cnccc3C(F)(F)F)n[nH]2)c1 [Compound 414, 4-Methoxy-2-[5-(4-trifluoromethyl-pyridin-3-yl)-2H-[1,2,4]triazol-3-yl]-phenol]	> 19
Oc1ccc(Cl)cc1-c1nc(-c2cnccc2C(F)(F)F)n[nH]1 [Compound 415, 4-Chloro-2-[5-(4-trifluoromethyl-pyridin-3-yl)-2H-[1,2,4]triazol-3-yl]-phenol]	14
CCOc1cccc(-c2nc(-c3cnccc3C(F)(F)F)n[nH]2)c1O [Compound 416, 6-Ethoxy-2-[5-(4-trifluoromethyl-pyridin-3-yl)-2H-[1,2,4]triazol-3-yl]-phenol]	> 19
Oc1cc(OCc2ccccc2)ccc1-c1nc(-c2cnccc2C(F)(F)F)n[nH]1 [Compound 417, 5-Benzyloxy-2-[5-(4-trifluoromethyl-pyridin-3-yl)-2H-[1,2,4]triazol-3-yl]-phenol]	> 19
Fc1cc(-c2nc(-c3cnccc3C(F)(F)F)n[nH]2)ccc1-c1ccccc1 [Compound 418, 3-[5-(2-Fluoro-biphenyl-4-yl)-1H-[1,2,4]triazol-3-yl]-4-trifluoromethyl-pyridine]	17
Oc1ccc(Br)cc1-c1nc(-c2cnccc2C(F)(F)F)n[nH]1 [Compound 419, 4-Bromo-2-[5-(4-trifluoromethyl-pyridin-3-yl)-2H-[1,2,4]triazol-3-yl]-phenol]	12
Cc1ccc(O)c(-c2nc(-c3cnccc3C(F)(F)F)n[nH]2)c1 [Compound 420, 4-Methyl-2-[5-(4-trifluoromethyl-pyridin-3-yl)-2H-[1,2,4]triazol-3-yl]-phenol]	9.7
COc1ccc(-c2nc(-c3cnccc3C(F)(F)F)n[nH]2)c(O)c1 [Compound 421, 5-Methoxy-2-[5-(4-trifluoromethyl-pyridin-3-yl)-2H-[1,2,4]triazol-3-yl]-phenol]	> 19
Oc1ccccc1-c1nc(-c2cnccc2C(F)(F)F)n[nH]1 [Compound 422, 2-[5-(4-trifluoromethyl-pyridin-3-yl)-2H-[1,2,4]triazol-3-yl]-phenol]	> 19
COc1cccc(-c2nc(-c3cnccc3C(F)(F)F)n[nH]2)c1O [Compound 423, 6-Methoxy-2-[5-(4-trifluoromethyl-pyridin-3-yl)-2H-[1,2,4]triazol-3-yl]-phenol]	> 19
CCN(CC)c1ccc(-c2nc(-c3cnccc3C(F)(F)F)n[nH]2)c(O)c1 [Compound 424, 5-Diethylamino-2-[5-(4-trifluoromethyl-pyridin-3-yl)-2H-[1,2,4]triazol-3-yl]-phenol]	> 3.2
CC1(C)CCN2CCC(C)(C)c3c(O)c(-c4nc(-c5cnccc5C(F)(F)F)n[nH]4)cc1c32 [Compound 425, 1,1,7,7-Tetramethyl-9-[5-(4-trifluoromethyl-pyridin-3-yl)-2H-[1,2,4]triazol-3-yl]-2,3,6,7-tetrahydro-1H,5H-pyrido[3,2,1-ij]quinolin-8-ol]	2.9
